“And” between values parts separate entries of the source, which are not always exact repeats. Identical values can stand only once.
Tests used:
Test in all cases: Postemergence foliar-applied weed control, direct seeded rice, greenhouse (Example I)
[1] = tested on: CYPIR (Cyperus iria, rice flatsedge); type: in vivo, Cyperus iria L.
Summary of the method: (§1)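 Greenhouse-grown plants in loam/sandy loam–grit soil (14 h photoperiod, ~29/26 °C) were sprayed postemergence at the first to fourth true leaf stage. Compound A (acid equivalent basis) and ALS-inhibiting sulfonylureas (active ingredient basis) were applied alone and in combination in 1.25% (v/v) crop oil concentrate at 187 L/ha by track sprayer; controls received solvent blank.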

[2] = tested on: IPOHE (Ipomoea hederacea, ivyleaf morningglory); type: in vivo, Ipomoea hederacea Jacq.
Summary of the method: as §1

[3] = tested on: SCPJU (Schoenoplectus juncoides, Japanese bulrush); type: in vivo, Schoenoplectus juncoides (Roxb.) Palla; settings: 21 DAA
Source text: Seeds or nutlets of the desired test plant species were planted in a soil matrix prepared by mixing a loam or sandy loam soil (e.g., 28.6 percent silt, 18.8 percent clay, and 52.6 percent sand, with a pH of about 5.8 and an organic matter content of about 1.8 percent) and calcareous grit in an 80 to 20 ratio. The soil matrix was contained in plastic pots with a volume of 1 quart and a surface area of 83.6 square centimeters (cm^2). When required to ensure good germination and healthy plants, a fungicide treatment and/or other chemical or physical treatment was applied. The plants were grown for 8-22 days in a greenhouse with an approximate 14 h photoperiod which was maintained at about 29° C. during the day and 26° C. during the night. Nutrients (Peters Excel® 15-5-15 5-Ca 2-Mg and iron chelate) were applied in the irrigation solution as needed and water was added on a regular basis. Supplemental lighting was provided with overhead metal halide 1000-Watt lamps as necessary. The plants were employed for testing when they reached the first through fourth true leaf stage.
Treatments consisted of the acid or esters of 4-amino-3-chloro-5-fluoro-6-(4-chloro-2-fluoro-3-methoxy-phenyl)pyridine-2-carboxylic acid (Compound A), each formulated as an SC, and various herbicidal components alone and in combination. Forms of compound A were applied on an acid equivalent basis. […]
Treatment requirements were calculated based upon the rates being tested, the concentration of active ingredient or acid equivalent in the formulation, and a 12 mL application volume at a rate of 187 L/ha.
For treatments comprised of formulated compounds, measured amounts of compounds were placed individually in 25 mL glass vials and diluted in a volume of 1.25% (v/v) Agri-Dex® crop oil concentrated to obtain 12× stock solutions. […]
For treatments comprised of formulated and technical compounds, weighed amounts of the technical materials were placed individually in 25 mL glass vials and dissolved in a volume of 97:3 v/v acetone/DMSO to obtain 12× stock solutions, and measured amounts of the formulated compounds were placed individually in 25 mL glass vials and diluted in a volume of 1.25% (v/v) crop oil concentrate to obtain 12× stock solutions. […]

[4] = tested on: DIGSA (Digitaria sanguinalis, large crabgrass); type: in vivo, Digitaria sanguinalis (L.) Scop.; settings: for Visual Weed Control (%) - 21 DAA DIGSA Obs: Table 27, foliar-applied
Summary of the method: as §1

COc1c(Cl)ccc(-c2nc(C(=O)OCc3ccccc3)c(Cl)c(N)c2F)c1F [Compound A Benzyl Ester]
Visual Weed Control (%) Obs ([1]; 20 DAA, 4.38 gae/ha): 15% | Visual Weed Control (%) Obs ([1]; 20 DAA, 8.75 gae/ha): 60% | Visual Weed Control (%) Obs ([1]; 20 DAA, 17.5 gae/ha): 90% | Visual Weed Control (%) Obs ([1]; 21 DAA, 4.38 gae/ha): 50% | Visual Weed Control (%) Obs ([1]; 22 DAA, 16 gae/ha): 60% and 80% | Visual Weed Control (%) Obs ([2]; 20 DAA, 4.38 gae/ha): 10% | Visual Weed Control (%) Obs ([2]; 20 DAA, 8.75 gae/ha): 10% | Visual Weed Control (%) Obs ([2]; 20 DAA, 17.5 gae/ha): 25% | Visual Weed Control (%) Obs ([2]; 21 DAA, 4.38 gae/ha): 0% | Visual Weed Control (%) Obs ([2]; 21 DAA, 8 gae/ha): 10% | Visual Weed Control (%) Obs ([2]; 21 DAA, 8.75 gae/ha): 10% | Visual Weed Control (%) Obs ([2]; 21 DAA, 16 gae/ha): 10% | Visual Weed Control (%) Obs ([2]; 21 DAA, 17.5 gae/ha): 30% | Visual Weed Control (%) Obs ([2]; 21 DAA, 32 gae/ha): 45% | Visual Weed Control Obs ([2]; 22 DAA, 8 gae/ha): 10% | Visual Weed Control Obs ([2]; 22 DAA, 16 gae/ha): 10% | Visual Weed Control Obs ([2]; 22 DAA, 32 gae/ha): 35% | Visual Weed Control (%) Obs ([3]; 4.38 gae/ha): 40% | Visual Weed Control (%) Obs ([4]; 20 DAA, 4.38 gae/ha): 20% | Visual Weed Control (%) Obs ([4]; 20 DAA, 8.75 gae/ha): 15% | Visual Weed Control (%) Obs ([4]; 20 DAA, 17.5 gae/ha): 20% | Visual Weed Control (%) Obs ([4]; 22 DAA, 8 gae/ha): 20% | Visual Weed Control (%) Obs ([4]; 22 DAA, 16 gae/ha): 20% | Visual Weed Control (%) Obs ([4]; 22 DAA, 32 gae/ha): 35% | Visual Weed Control (%) - 21 DAA DIGSA Obs ([4]; 8 gae/ha alone): 25% | Visual Weed Control (%) - 21 DAA DIGSA Obs ([4]; 16 gae/ha alone): 30% | Visual Weed Control (%) - 21 DAA DIGSA Obs ([4]; 32 gae/ha alone): 50%

COc1c(Cl)ccc(-c2nc(C(=O)O)c(Cl)c(N)c2F)c1F [Compound A Acid, 4-amino-3-chloro-5-fluoro-6-(4-chloro-2-fluoro-3-methoxy-phenyl)pyridine-2-carboxylic acid]
Visual Weed Control (%) Obs ([1]; 21 DAA, 4.38 gae/ha): 70% | Visual Weed Control (%) Obs ([1]; 22 DAA, 8 gae/ha): 60% | Visual Weed Control (%) Obs ([1]; 22 DAA, 16 gae/ha): 90% | Visual Weed Control (%) Obs ([2]; 20 DAA, 5.3 gae/ha): 0% | Visual Weed Control (%) Obs ([2]; 20 DAA, 10.6 gae/ha): 15% | Visual Weed Control (%) Obs ([2]; 20 DAA, 21.2 gae/ha): 25% | Visual Weed Control (%) Obs ([2]; 21 DAA, 4.38 gae/ha): 25% | Visual Weed Control (%) Obs ([2]; 21 DAA, 8.75 gae/ha): 30% | Visual Weed Control (%) Obs ([2]; 21 DAA, 17.5 gae/ha): 45% | Visual Weed Control (%) Obs ([2]; 22 DAA, 8 gae/ha): 25% | Visual Weed Control (%) Obs ([2]; 22 DAA, 16 gae/ha): 35% | Visual Weed Control (%) Obs ([2]; 22 DAA, 32 gae/ha): 40% | Visual Weed Control (%) Obs ([4]; 20 DAA, 5.3 gae/ha): 10% | Visual Weed Control (%) Obs ([4]; 24 DAA, 17.5 gae/ha): 25%

COCC(=O)OC(c1ncccc1S(=O)(=O)NC(=O)Nc1nc(OC)cc(OC)n1)C(C)F (stereo not drawn) [Flucetosulfuron, 1-[3-[[[[(4,6-dimethoxy-2-pyrimidinyl)amino]carbonyl]amino]sulfonyl]-2-pyridinyl]-2-fluoropropyl 2-methoxyacetate]
Visual Weed Control (%) Obs ([1]; 21 DAA, 0.05 gai/ha): 0% | Visual Weed Control (%) Obs ([1]; 21 DAA, 0.1 gai/ha): 0% | Visual Weed Control (%) Obs ([1]; 21 DAA, 0.2 gai/ha): 20% | Visual Weed Control (%) Obs ([2]; 21 DAA, 0.05 gai/ha): 20% | Visual Weed Control (%) Obs ([2]; 21 DAA, 0.2 gai/ha): 20% | Visual Weed Control (%) Obs ([2]; 22 DAA, 5 gai/ha): 90% | Visual Weed Control (%) Obs ([2]; 22 DAA, 10 gai/ha): 90% | Visual Weed Control (%) Obs ([3]; 0.05 gai/ha): 95% | Visual Weed Control (%) Obs ([3]; 0.1 gai/ha): 50% | Visual Weed Control (%) Obs ([3]; 0.2 gai/ha): 30%

— patent US8871681B2, “Herbicidal compositions comprising 4-amino-3-chloro-5-fluoro-6-(4-chloro-2-fluoro-3-methoxyphenyl) pyridine-2-carboxylic acid or a derivative thereof and certain sulfonylureas” (Dow AgroSciences LLC, priority 2012, dated 2014)
